Experimental data reported in patent US20240083857A1, “2-Methyl-Quinazolines” (Bayer Pharma Aktiengesellschaft, priority 2017, published 2024).
Where two headings read alike, the source gives them in different places.

Assays:
[1] = molecular target: Epidermal Growth Factor Receptor (EGFR) (Homo sapiens (Human), UniProt P00533); experiment: EGFR kinase assay (TR-FRET); assay type: biochemical; details: read-out: EGFR kinase inhibition IC50
Procedure, shortened: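 EGFR purified from A431 cells was preincubated with compound 15 min at 22° C in pH 7.0 Hepes buffer with MgCl2, MnCl2 and vanadate before reaction with a biotinylated peptide. After EDTA stop, phosphopeptide was detected by TR-FRET (anti-phosphotyrosine Tb-cryptate, streptavidin-XL665) as the 665/620 nm emission ratio.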

[2] = molecular target: human SOS1 (loading of human K-Ras^G12C-GDP with fluorescent GTP-analog) (Homo sapiens, UniProt Q07889); experiment: Biochemical assay 3: K-Ras^G12C activation assay by hSOS1 (HTRF); details: no GTP; for IC50: read-out: Assay 3 (KRAS-Activation by SOS no GTP) activity expressed as IC50; for inhibition at 20 µM: read-out: Assay 3 (KRAS-Activation by SOS no GTP) activity expressed as % inhibition at 20 μM

Epidermal Growth Factor Receptor (EGFR), sequence (P00533 25-1210): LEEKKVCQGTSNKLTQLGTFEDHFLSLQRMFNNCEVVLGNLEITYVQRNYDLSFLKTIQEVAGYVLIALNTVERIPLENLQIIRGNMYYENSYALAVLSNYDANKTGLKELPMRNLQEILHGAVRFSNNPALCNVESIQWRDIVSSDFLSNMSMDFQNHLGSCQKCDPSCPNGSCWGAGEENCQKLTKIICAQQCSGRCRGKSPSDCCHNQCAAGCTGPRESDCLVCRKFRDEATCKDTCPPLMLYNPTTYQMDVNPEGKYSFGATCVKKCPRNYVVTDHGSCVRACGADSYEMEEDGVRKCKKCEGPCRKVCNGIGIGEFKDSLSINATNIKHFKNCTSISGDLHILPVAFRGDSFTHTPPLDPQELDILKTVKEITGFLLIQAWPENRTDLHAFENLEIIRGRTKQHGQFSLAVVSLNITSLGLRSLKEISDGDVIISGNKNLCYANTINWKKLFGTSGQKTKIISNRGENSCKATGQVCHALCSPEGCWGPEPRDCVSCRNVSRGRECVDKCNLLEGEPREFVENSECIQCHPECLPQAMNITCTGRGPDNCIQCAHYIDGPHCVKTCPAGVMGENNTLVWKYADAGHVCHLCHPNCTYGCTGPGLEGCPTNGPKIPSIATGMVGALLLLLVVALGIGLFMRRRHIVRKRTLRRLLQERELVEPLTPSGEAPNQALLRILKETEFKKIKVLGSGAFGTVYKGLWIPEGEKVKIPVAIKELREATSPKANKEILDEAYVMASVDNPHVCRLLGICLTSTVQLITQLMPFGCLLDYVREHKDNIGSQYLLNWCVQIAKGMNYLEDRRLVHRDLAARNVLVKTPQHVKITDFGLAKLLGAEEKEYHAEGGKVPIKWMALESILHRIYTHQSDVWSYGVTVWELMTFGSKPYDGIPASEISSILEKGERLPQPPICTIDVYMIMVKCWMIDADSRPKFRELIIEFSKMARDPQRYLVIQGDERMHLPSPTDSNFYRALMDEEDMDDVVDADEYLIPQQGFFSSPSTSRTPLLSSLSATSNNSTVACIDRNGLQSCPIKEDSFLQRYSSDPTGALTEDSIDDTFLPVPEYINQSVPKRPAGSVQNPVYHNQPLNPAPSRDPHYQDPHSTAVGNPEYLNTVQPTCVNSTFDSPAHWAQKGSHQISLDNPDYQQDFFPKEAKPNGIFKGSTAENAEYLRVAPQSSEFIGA

Structure (SMILES): COc1cc2nc(C)nc(NC(C)c3cccc(Oc4ccccc4)c3)c2cc1OC (single isomer, unassigned; enantiomer 1) [Example 228, 6,7-dimethoxy-2-methyl-N-[1-(3-phenoxyphenyl)ethyl]quinazolin-4-amine, Enantiomer 1]
- IC50 ([1]; unit inferred): 0.341 µM
- IC50 [2]: 1.43 µM

Structure (SMILES): COc1cc2nc(C)nc(NC(C)c3cccc4cccnc34)c2cc1OC (single isomer, unassigned; enantiomer 1) [Example 230, 6,7-dimethoxy-2-methyl-N-[1-(quinolin-8-yl)ethyl]quinazolin-4-amine, Enantiomer 1]
- IC50 ([1]; values given in μM): > 20 µM
- IC50 [2]: 13.3 µM

Structure (SMILES): COc1cc2nc(C)nc(N[C@H](C)c3cccc(Cl)c3)c2cc1OC [Example 2, N-[(1R)-1-(3-chlorophenyl)ethyl]-6,7-dimethoxy-2-methylquinazolin-4-amine]
- IC50 ([1]; unit inferred): 16.3 µM
- IC50 [2]: 0.537 µM

Structure (SMILES): COC(=O)c1cc2c(C(C)Nc3nc(C)nc4cc(OC)c(OC)cc34)cccc2s1 (stereo not shown) [Example 3, methyl 4-{1-[(6,7-dimethoxy-2-methylquinazolin-4-yl)amino]ethyl}-1-benzothiophene-2-carboxylate]
- IC50 ([1]; values given in μM): > 20 µM
- IC50 [2]: 0.231 µM

Structure (SMILES): COc1cc2nc(C)nc(NC(C)c3cccc4ccoc34)c2cc1OC (stereo not shown) [Example 4, N-[1-(1-benzofuran-7-yl)ethyl]-6,7-dimethoxy-2-methylquinazolin-4-amine]
- IC50 ([1]; values given in μM): > 20 µM
- IC50 [2]: 0.479 µM

Structure (SMILES): COc1cc2nc(C)nc(NC(C)c3ccc(F)c4[nH]ncc34)c2cc1OC (stereo not shown) [Example 5, N-[1-(7-fluoro-1H-indazol-4-yl)ethyl]-6,7-dimethoxy-2-methylquinazolin-4-amine]
- IC50 ([1]; values given in μM): > 20 µM
- IC50 [2]: 5.06 µM

Structure (SMILES): COc1cc2nc(C)nc(NC(C)c3cc(F)cc4[nH]ncc34)c2cc1OC (stereo not shown) [Example 6, N-[1-(6-fluoro-1H-indazol-4-yl)ethyl]-6,7-dimethoxy-2-methylquinazolin-4-amine]
- IC50 ([1]; values given in μM): > 20 µM
- IC50 [2]: 4.98 µM

Structure (SMILES): COc1cc2nc(C)nc(NC(C)c3cccc4cn(C)nc34)c2cc1OC (stereo not shown) [Example 8, 6,7-dimethoxy-2-methyl-N-[1-(2-methyl-2H-indazol-7-yl)ethyl]quinazolin-4-amine]
- IC50 ([1]; values given in μM): > 20 µM
- inhibition at 20 µM [2]: 14%

Structure (SMILES): COc1cc2nc(C)nc(NC(C)c3cccc4nn(C)cc34)c2cc1OC (stereo not shown) [Example 9, 6,7-dimethoxy-2-methyl-N-[1-(2-methyl-2H-indazol-4-yl)ethyl]quinazolin-4-amine]
- IC50 ([1]; values given in μM): > 20 µM
- IC50 [2]: 5.96 µM

Structure (SMILES): COc1cc2nc(C)nc(NC(C)c3cccc4cnn(C)c34)c2cc1OC (stereo not shown) [Example 10, 6,7-dimethoxy-2-methyl-N-[1-(1-methyl-1H-indazol-7-yl)ethyl]quinazolin-4-amine]
- IC50 ([1]; values given in μM): > 20 µM
- IC50 [2]: 6.14 µM

Structure (SMILES): COc1cc2nc(C)nc(NC(C)c3cccc4c3CCCC4)c2cc1OC (stereo not shown) [Example 11, 6,7-dimethoxy-2-methyl-N-[1-(5,6,7,8-tetrahydronaphthalen-1-yl)ethyl]quinazolin-4-amine]
- IC50 ([1]; values given in μM): > 20 µM
- IC50 [2]: 0.54 µM

Structure (SMILES): COc1cc2nc(C)nc(N[C@H](C)c3ccc(F)cc3)c2cc1OC [Example 12, N-[(1R)-1-(4-fluorophenyl)ethyl]-6,7-dimethoxy-2-methylquinazolin-4-amine]
- IC50 ([1]; values given in μM): > 20 µM
- IC50 [2]: 1.29 µM

Structure (SMILES): COc1cc2nc(C)nc(NC(C)c3cccc4[nH]nc(C)c34)c2cc1OC (stereo not shown) [Example 13, 6,7-dimethoxy-2-methyl-N-[1-(3-methyl-1H-indazol-4-yl)ethyl]quinazolin-4-amine]
- IC50 ([1]; values given in μM): > 20 µM
- IC50 [2]: 7.73 µM

Structure (SMILES): COc1cc2nc(C)nc(NC(C)c3cc4cccc(O)c4o3)c2cc1OC (stereo not shown) [Example 28, 2-{-[(6,7-dimethoxy-2-methyquinazolin-4-yl)amino]ethyl}-1-benzofuran-7-ol]
- IC50 ([1]; values given in μM): > 20 µM
- inhibition at 20 µM [2]: 46%

Structure (SMILES): COC(=O)c1ccccc1-c1ccc(C(C)Nc2nc(C)nc3cc(OC)c(OC)cc23)s1 (stereo not shown) [Example 178, methyl 2-(5-{1-[(6,7-dimethoxy-2-methylquinazolin-4-yl)amino]ethyl}thiophen-2-yl)benzoate]
- IC50 ([1]; values given in μM): > 20 µM
- IC50 [2]: 7.12 µM

Structure (SMILES): COc1cc2nc(C)nc(NC(C)c3ccc(-c4ccccc4CN4CCC(C(N)=O)CC4)s3)c2cc1OC (stereo not shown) [Example 179, 1-[2-(5-{1-[(6,7-dimethoxy-2-methylquinazolin-4-yl)amino]ethyl}thiophen-2-yl)benzyl]piperidine-4-carboxamide]
- IC50 ([1]; values given in μM): > 20 µM
- IC50 [2]: 0.214 µM

Structure (SMILES): COc1cc2nc(C)nc(NC(C)c3ccc(-c4ccccc4CCO)s3)c2cc1OC (stereo not shown) [Example 180, 2-[2-(5-{1-[(6,7-dimethoxy-2-methylquinazolin-4-yl)amino]ethyl}thiophen-2-yl)phenyl]ethanol]
- IC50 ([1]; values given in μM): > 20 µM
- IC50 [2]: 0.82 µM

Structure (SMILES): COc1cc2nc(C)nc(NC(C)c3ccc(-c4cccc(CCO)c4)s3)c2cc1OC (stereo not shown) [Example 181, 2-[3-(5-{1-[(6,7-dimethoxy-2-methylquinazolin-4-yl)amino]ethyl}thiophen-2-yl)phenyl]ethanol]
- IC50 ([1]; values given in μM): > 20 µM
- inhibition at 20 µM [2]: 45%

Structure (SMILES): COc1cc2nc(C)nc(NC(C)c3ccc(-c4ccccc4CN4CC5(COC5)C4)s3)c2cc1OC (stereo not shown) [Example 182, 6,7-di methoxy-2-methyl-N-[1-{5-[2-(2-oxa-6-azaspiro[3.3]hept-6-ylmethyl)phenyl]thiophen-2-yl}ethyl]quinazolin-4-amine]
- IC50 ([1]; values given in μM): > 20 µM
- IC50 [2]: 0.121 µM

Structure (SMILES): COc1cc2nc(C)nc(NC(C)c3cc(C)c(Br)s3)c2cc1OC (stereo not shown) [Example 183, N-[1-(5-bromo-4-methylthiophen-2-yl)ethyl]-6,7-dimethoxy-2-methylquinazolin-4-amine]
- IC50 ([1]; values given in μM): > 20 µM
- IC50 [2]: 9.14 µM

Structure (SMILES): COc1cc2nc(C)nc(NC(C)c3ccc(-c4ccccc4CN4CCCC4)s3)c2cc1OC (stereo not shown) [Example 184, 6,7-dimethoxy-2-methyl-N-[1-{5-[2-(pyrrolidin-1-ylmethyl)phenyl]thiophen-2-yl}ethyl]quinazolin-4-amine]
- IC50 ([1]; values given in μM): > 20 µM
- IC50 [2]: 0.122 µM

Structure (SMILES): COc1cc2nc(C)nc(NC(C)c3ccc(-c4ccccc4CN4CCC[C@H]4CN(C)C)s3)c2cc1OC (stereo partly drawn) [Example 185, N-[1-{5-[2-({(2S)-[(dimethylamino)methyl]pyrrolidin-1-yl}methyl)phenyl]thiophen-2-yl}ethyl]-6,7-dimethoxy-2-methylquinazolin-4-amine]
- IC50 ([1]; values given in μM): > 20 µM
- IC50 [2]: 0.323 µM

Structure (SMILES): Cc1nc(N[C@H](C)c2cccc3ccccc23)c2ccccc2n1 [Example 186, 2-methyl-N-[(1R)-1-(naphthalen-1-yl)ethyl]quinazolin-4-amine]
- IC50 ([1]; values given in μM): > 20 µM
- inhibition at 20 µM [2]: 22%

Structure (SMILES): COc1cc2nc(C)nc(N[C@H](C)c3ccc(Br)cc3)c2cc1OC [Example 187, N-[(1R)-1-(4-bromophenyl)ethyl]-6,7-dimethoxy-2-methylquinazolin-4-amine]
- IC50 ([1]; values given in μM): > 20 µM
- IC50 [2]: 1.26 µM

Structure (SMILES): COc1cc2nc(C)nc(N[C@H](C)c3ccc(S(C)(=O)=O)cc3)c2cc1OC [Example 188, 6,7-dimethoxy-2-methyl-N-{(1R)-1-[4-(methylsulfonyl)phenyl]ethyl}quinazolin-4-amine]
- IC50 ([1]; values given in μM): > 20 µM
- inhibition at 20 µM [2]: 38%

Structure (SMILES): COc1cc2nc(C)nc(N[C@H](C)c3cccc(C)c3)c2cc1OC [Example 190, 6,7-dimethoxy-2-methyl-N-[(1R)-1-(3-methylphenyl)ethyl]quinazolin-4-amine]
- IC50 ([1]; values given in μM): > 20 µM
- IC50 [2]: 0.553 µM
